Reference: US4728641A, “Ganglioside derivatives” (Burroughs Wellcome Co., priority 1983, dated 1988)

Key:
[1] = system: Candida albicans (strain CN 7996); assay: In vivo activity against Candida albicans infection in mice; parameters: species or system Swiss male albino mice (Charles River CD1); details: cyclophosphamide 50 mg/kg i.v. 96 hours before infection, GM1 P 10 mg/kg s.c. 96 and 24 hours before infection, or both
Experimental: 53 Swiss male albino mice (Charles River CD1) weighing 23±1 g were randomly divided into […] groups of 10, 14, 14 and 15 animals each (groups 1 to 4 respectively). Group 1 animals were injected with saline as a control group; Group 2 were injected with cyclophosphamide 50 mg/kg (0.2 ml/mouse) intravenously 96 hours before infection; Group 3 with cyclophosphamide 50 mg/kg (0.2 ml/mouse) intravenously 96 hours before infection and with GM1 P 10 mg/kg (0.25 ml/10 g) subcutaneously at 96 and 24 hours before infection; and Group 4 with GM1 P 10 mg/kg (0.25 ml/10 g) subcutaneously 96 and 24 hours before infection. The mice were then injected intravenously with 0.225 ml/mouse of an 18 hour culture of Sabouraud glucose broth containing 1.204×10^7 Candida albicans cells/ml (strain CN 7996).

[2] = system: Plasmodium berghei; assay: In vivo activity against Plasmodium berghei protozoa in mice; parameters: species or system Swiss male albino mice (Charles River CD1); details: GM1 P (Example 1) 5 mg/kg s.c. 24 and 2 hours before infection, pyrimethamine 1 mg/kg s.c. days 0, 1 and 2, or both
Experimental: 40 Swiss male albino mice (Charles River CD1) weighing 22±1 g were randomly divided into groups of 10 and injected intraperitoneally with 0.1 ml/10 g of citrated blood of 6-day parasitised mice which had been diluted 1:1000 (v/v) with saline to obtain 1.58×10^6 P. berghei I.S.S./ml. The control group (1) were injected with saline, group 2 with ganglioside GM1 P prepared by the method of Example 1 (5 mg/kg s.c. in saline), group 3 with the known anti-protozoal agent pyrimethamine (1 mg/kg s.c. in CMC 0.25% in water, w/v), and group 4 with both GM1 P and pyrimethamine at the doses stated above. The dose volume was 0.25 ml/10 g. The GM1 P was administered 24 hours and 2 hours before infection (Day 0) and the pyrimethamine on days 0,1 and 2.

| SMILES | Number alive at Day 23 ([1]; Day 23) | Mean survival time [1] | Mortality (%) Day 9 ([2]; Day 9) | Mortality (%) Day 13 ([2]; Day 13) |
| --- | --- | --- | --- | --- |
| O=P1(N(CCCl)CCCl)NCCCO1 (stereo not shown) [cyclophosphamide] | 0 | 1.21 days |  |  |
| CCc1nc(N)nc(N)c1-c1ccc(Cl)cc1 [pyrimethamine] |  |  | 50% | 90% |
